As usually defined, the AUC(0-t) is the area under the concentration-time curve up to a stated or last time point. The low end stands for less exposure, the high end for more exposure. In general, half-life refers to the time in which the quantity being followed falls by half. The low end stands for fast loss, the high end for slow loss. Usually CLint scaled stands for a measure of how fast metabolising enzymes remove a compound, apart from limits set by blood flow. The IC50 is the concentration at which inhibition is half-maximal.

The structures appear in SMILES notation.

The values that follow come from US9573953B2, “Heteroaromatic compounds as PI3 kinase modulators and methods of use” (CALITOR SCIENCES, LLC, priority 2013, dated 2017).

Data set [1] in a line: Pharmacokinetic profiles in rats. The following applies: for F: iv dose 2 mg/kg, oral dose generally 5 or 10 mg/kg; for Cl/F / AUC(0-t) / half-life / Vd: iv dosing, 2 mg/kg; for AUC(0-t) / half-life / Vd: rat, plasma; for Vd: read-out: Vss. In kind it is in vivo. The method, then:
The compounds disclosed herein are assessed in pharmacokinetic studies in mice, rats, dogs or monkeys. The compounds are administered as a water solution, 2% HPMC+1% TWEEN®80 in water solution, 5% DMSO+5% solutol in saline, 4% MC suspension or capsule. For the intravenous administration, the animals are generally given at 1 or 2 mg/kg dose. For the oral (p.o.) dosing, mice and rats are generally given 5 or 10 mg/kg dose, and dogs and monkeys are generally given 10 mg/kg dose. The blood samples (0.3 mL) are drawn at 0.25, 0.5, 1.0, 2.0, 3.0, 4.0, 6.0, 8.0, 12 and 24 h time points or 0.083, 0.25, 0.5, 1.0, 2.0, 4.0, 6.0, 8.0 and 24 h time points and centrifuged at 3,000 or 4000 rpm for 2 to 10 min. The plasma solutions are collected and stored at −20° C. or −70° C. until analyzed by LC/MS/MS as described above.

The nature of data set [2]: Compound stability in rat liver microsomes. As to conditions: for half-life at 5 μM / CLint scaled at 5 μM: pH 7.4; for CLint scaled at 5 μM: rat liver microsomes, in vivo CLint extrapolated. The data set is classed as in vitro ADME. The method, then:
(§1) Human or rat liver microsomes incubations were conducted in duplicate in polypropylene tubes. The typical incubation mixtures consisted of human or rat liver microsomes (0.5 mg protein/mL), compounds of interest (5 μM) and NADPH (1.0 mM) in a total volume of 200 μL potassium phosphate buffer (PBS, 100 mM, pH=7.4). Compounds were dissolved in DMSO and diluted with PBS such that the final concentration of DMSO was 0.05%. The enzymatic reactions were commenced with the addition of protein after a 3-min preincubation and incubated in a water bath open to the air at 37° C. Reactions were terminated at various time points (0, 5, 10, 15, 30, 60 min) by adding equal volume of ice-cold acetonitrile. The samples were stored at −80° C. until LC/MS/MS assays.
(§2) The concentrations of compounds in the incubation mixtures of human or rat liver microsomes were determined by a LC/MS/MS method. The ranges of the linearity in the concentration range were determined for each tested compounds.
(§3) A parallel incubation was performed using denatured microsomes as the negative control, and reactions were terminated at various time points (0, 15, 60 min) after incubation at 37° C.
(§4) Dextromethorphan (70 μM) was selected as the positive control, and reactions were terminated at various time points (0, 5, 10, 15, 30, 60 min) after incubation at 37° C. Both positive and negative control samples were included in each assay to ensure the integrity of the microsomal incubation system.
(§5) The concentrations of compounds in human or rat liver microsome incubations were plotted as a percentage of the relevant zero time point control for each reaction. The in vivo CLint were extrapolated (ref.: Naritomi Y, Terashita S, Kimura S, Suzuki A, Kagayama A, Sugiyama Y. “Prediction of human hepatic clearance from in vivo animal experiments and in vitro metabolic studies with liver microsomes from animals and humans”, Drug Metabolism and Disposition, 2001, 29, 1316-1324).

For data set [3], the target named is T1, PI3K (p120γ) (h) (Homo sapiens, UniProt P48736).
T1 construct: purchased Millipore UK Ltd (assays run there as a service)
Briefly: PI3K (p120γ) (h) non-radioactive (HTRF) assay. The data set is classed as biochemical. The method, then:
PI3K (p120γ) (h) [Non-Radioactive Assay]
(§6) PI3K (p120γ) (h) is incubated in assay buffer containing 10 μM phosphatidylinositol-4,5-bisphosphate and MgATP (concentration as required). The reaction is initiated by the addition of the MgATP mix. After incubation for 30 minutes at room temperature, the reaction is stopped by the addition of stop solution containing EDTA and biotinylated phosphatidylinositol-3,4,5-trisphosphate. Finally, detection buffer is added, which contains europium-labelled anti-GST monoclonal antibody, GST-tagged GRP1 PH domain and streptavidin-allophycocyanin. The plate is then read in time-resolved fluorescence mode and the homogenous time-resolved fluorescence (HTRF) signal is determined according to the formula HTRF=10000×(Em665 nm/Em620 nm).
(§7) The kinase assays described herein were performed at Millipore UK Ltd, Dundee Technology Park, Dundee DD2 1SW, UK.

The target of data set [4] is T2, PI3K p110β/p85α (h) (Homo sapiens, UniProt P42338).
T2 construct: purchased Millipore UK Ltd (assays run there as a service)
Briefly: PI3K p110β/p85α (h) non-radioactive (HTRF) assay. The data set is classed as biochemical. The method, then:
PI3K p110β/p85α (h) [Non-Radioactive Assay]
as §6, with “(p110β/p85α)” for “(p120γ)”
as §7
In general terms: In TR-FRET formats the signal depends on donor and acceptor labels being close together.

Data set [5] can be described thus: Compound stability in human liver microsomes. As to conditions: for half-life at 5 μM / CLint scaled at 5 μM: pH 7.4; for CLint scaled at 5 μM: human liver microsomes, in vivo CLint extrapolated. The data set is classed as in vitro ADME. The method, then:
as §1, §2, §3, §4, §5

For data set [6], the target named is T3, PI3K (p110δ/p85α) (h) (Homo sapiens, UniProt O00329).
T3 construct: purchased Millipore UK Ltd (assays run there as a service)
Briefly: PI3K (p110δ/p85α) (h) non-radioactive (HTRF) assay. The data set is classed as biochemical. The method, then:
PI3K (p110δ/p85α) (h) [Non-Radioactive Assay]
as §6, with “(p110δ/p85α)” for “(p120γ)”
as §7

[7] abbreviates: rat liver microsomes 0.5 mg protein/mL, compound 5 μM, NADPH, 37° C.
Setting [8] is: human liver microsomes 0.5 mg protein/mL, compound 5 μM, NADPH, 37° C.

T3 sequence (O00329 whole entry): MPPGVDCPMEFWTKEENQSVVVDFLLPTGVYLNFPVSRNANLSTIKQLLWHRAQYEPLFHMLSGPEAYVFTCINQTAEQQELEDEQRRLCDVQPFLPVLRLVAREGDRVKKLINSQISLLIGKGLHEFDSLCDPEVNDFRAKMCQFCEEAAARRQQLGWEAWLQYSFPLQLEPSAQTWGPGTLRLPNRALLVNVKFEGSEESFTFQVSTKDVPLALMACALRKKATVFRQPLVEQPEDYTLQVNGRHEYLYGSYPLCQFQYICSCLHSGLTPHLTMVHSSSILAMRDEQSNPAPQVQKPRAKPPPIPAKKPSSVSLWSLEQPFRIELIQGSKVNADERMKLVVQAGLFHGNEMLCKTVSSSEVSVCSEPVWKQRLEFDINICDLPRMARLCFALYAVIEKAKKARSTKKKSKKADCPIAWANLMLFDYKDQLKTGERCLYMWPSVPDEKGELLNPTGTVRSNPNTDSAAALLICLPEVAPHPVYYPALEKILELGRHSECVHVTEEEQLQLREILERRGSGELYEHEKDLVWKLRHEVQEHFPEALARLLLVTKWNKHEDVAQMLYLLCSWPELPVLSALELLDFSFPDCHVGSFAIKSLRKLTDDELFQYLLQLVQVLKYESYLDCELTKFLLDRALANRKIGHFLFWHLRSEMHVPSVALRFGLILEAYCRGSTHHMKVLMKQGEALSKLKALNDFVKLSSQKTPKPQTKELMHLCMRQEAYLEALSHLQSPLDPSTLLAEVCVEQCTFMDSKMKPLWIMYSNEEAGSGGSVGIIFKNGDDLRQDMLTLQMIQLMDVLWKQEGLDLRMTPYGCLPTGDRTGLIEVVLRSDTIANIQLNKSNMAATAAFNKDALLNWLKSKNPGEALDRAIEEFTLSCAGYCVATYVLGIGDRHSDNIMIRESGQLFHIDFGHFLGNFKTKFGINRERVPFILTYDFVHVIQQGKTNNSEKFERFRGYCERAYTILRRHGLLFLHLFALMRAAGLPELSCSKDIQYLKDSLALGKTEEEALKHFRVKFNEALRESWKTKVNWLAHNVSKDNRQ
T3 sequence (P27986 whole entry partner): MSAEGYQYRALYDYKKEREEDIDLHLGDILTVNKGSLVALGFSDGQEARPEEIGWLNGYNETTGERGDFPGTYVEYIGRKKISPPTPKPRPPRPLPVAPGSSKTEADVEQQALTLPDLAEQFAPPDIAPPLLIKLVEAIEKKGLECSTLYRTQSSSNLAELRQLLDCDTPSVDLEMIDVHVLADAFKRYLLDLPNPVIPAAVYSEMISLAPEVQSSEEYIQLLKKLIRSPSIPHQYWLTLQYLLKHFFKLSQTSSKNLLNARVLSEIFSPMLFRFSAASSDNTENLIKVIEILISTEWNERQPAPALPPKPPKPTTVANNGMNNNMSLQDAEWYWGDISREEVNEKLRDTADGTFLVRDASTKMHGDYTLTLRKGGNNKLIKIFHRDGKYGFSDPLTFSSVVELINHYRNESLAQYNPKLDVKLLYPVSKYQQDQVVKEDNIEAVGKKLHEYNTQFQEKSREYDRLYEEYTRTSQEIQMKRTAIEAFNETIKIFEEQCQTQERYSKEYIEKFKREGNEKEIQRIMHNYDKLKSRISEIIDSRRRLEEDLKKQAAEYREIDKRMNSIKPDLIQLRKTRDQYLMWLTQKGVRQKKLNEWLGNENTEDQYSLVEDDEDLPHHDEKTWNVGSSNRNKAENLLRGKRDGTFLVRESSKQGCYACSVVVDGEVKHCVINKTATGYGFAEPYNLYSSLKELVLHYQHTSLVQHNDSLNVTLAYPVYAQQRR
T2 sequence (P42338 whole entry): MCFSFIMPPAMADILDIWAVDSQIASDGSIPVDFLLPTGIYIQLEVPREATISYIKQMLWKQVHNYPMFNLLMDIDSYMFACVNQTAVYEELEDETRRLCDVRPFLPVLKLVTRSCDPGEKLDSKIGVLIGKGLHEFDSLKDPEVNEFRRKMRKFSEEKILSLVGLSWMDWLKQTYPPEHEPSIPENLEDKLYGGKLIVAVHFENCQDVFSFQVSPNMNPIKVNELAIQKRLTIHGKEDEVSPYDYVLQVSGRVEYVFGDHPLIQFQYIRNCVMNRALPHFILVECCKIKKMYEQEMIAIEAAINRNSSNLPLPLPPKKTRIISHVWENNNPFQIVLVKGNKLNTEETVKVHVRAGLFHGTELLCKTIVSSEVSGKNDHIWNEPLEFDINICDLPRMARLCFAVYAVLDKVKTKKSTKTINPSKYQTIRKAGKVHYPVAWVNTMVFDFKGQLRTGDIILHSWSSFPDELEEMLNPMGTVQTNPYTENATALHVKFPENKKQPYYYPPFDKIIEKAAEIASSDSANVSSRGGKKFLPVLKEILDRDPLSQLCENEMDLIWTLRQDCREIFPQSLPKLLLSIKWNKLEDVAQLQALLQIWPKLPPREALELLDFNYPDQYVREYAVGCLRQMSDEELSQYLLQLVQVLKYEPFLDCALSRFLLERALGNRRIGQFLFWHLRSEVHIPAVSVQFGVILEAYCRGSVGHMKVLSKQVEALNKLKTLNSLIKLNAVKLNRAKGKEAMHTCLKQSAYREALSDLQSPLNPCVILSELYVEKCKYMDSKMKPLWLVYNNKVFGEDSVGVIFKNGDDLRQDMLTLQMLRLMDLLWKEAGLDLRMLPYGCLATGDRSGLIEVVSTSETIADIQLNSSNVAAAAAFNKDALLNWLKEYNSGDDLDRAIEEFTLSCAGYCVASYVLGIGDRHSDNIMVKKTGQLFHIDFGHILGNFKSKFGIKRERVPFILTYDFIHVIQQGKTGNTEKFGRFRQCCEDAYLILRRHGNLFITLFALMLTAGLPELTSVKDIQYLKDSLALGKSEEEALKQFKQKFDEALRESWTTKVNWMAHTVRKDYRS
T2 sequence (P27986 whole entry partner): as the sequence (P27986 whole entry partner) above
T1 sequence (P48736 whole entry): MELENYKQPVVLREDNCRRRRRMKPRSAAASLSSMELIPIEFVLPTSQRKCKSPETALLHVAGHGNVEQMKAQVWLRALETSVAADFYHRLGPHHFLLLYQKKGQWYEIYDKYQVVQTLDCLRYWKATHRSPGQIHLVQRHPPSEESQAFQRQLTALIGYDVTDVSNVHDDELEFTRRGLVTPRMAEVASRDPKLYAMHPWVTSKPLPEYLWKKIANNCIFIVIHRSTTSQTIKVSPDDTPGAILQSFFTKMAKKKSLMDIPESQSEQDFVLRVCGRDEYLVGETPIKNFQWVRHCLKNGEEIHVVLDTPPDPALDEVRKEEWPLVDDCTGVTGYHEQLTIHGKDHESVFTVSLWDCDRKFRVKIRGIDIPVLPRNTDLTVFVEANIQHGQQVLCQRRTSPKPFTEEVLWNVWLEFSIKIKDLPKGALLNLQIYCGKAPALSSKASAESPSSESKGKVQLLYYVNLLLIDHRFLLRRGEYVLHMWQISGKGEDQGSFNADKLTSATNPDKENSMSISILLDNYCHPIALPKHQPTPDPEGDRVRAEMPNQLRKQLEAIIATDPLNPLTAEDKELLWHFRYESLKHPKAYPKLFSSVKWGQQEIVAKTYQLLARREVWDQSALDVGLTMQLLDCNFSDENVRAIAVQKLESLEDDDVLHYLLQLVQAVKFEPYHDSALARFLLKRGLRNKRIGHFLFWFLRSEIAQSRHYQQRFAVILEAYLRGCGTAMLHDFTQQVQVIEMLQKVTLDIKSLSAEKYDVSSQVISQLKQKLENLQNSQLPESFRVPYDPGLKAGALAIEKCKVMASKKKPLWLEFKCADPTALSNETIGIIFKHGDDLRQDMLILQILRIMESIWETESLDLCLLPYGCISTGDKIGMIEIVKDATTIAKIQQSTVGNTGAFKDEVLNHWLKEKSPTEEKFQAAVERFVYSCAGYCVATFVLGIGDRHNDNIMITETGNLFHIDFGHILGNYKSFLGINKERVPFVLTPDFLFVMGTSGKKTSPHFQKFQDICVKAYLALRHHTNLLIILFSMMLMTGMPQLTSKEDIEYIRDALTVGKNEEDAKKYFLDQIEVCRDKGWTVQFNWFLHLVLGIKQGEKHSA

Turning to `COc1ncc(-c2ccn3ncc(C#CCO)c3n2)cc1NS(=O)(=O)c1ccc(F)cc1F` [Ex. 1, 2,4-difluoro-N-(5-(3-(3-hydroxyprop-1-yn-1-yl)pyrazolo[1,5-a]pyrimidin-5-yl)-2-methoxypyridin-3-yl)benzenesulfonamide], in data set [1], the F is reported as 102.00%, the Cl/F was 2.83 mL/min/kg, the AUC(0-t) was determined as 12100 ng·h/mL and the half-life was 3.93 h. Further, the Vd in data set [1] was determined as 0.32 L/kg. This compound also yielded a half-life at 5 μM in data set [2] (setting [7]) of 2.92 h. In data set [2], the CLint scaled at 5 μM was 14.2 mL/min/kg. The IC50 in data set [3] amounted to 6 nM. Further, the IC50 in data set [4] is 84 nM. Besides, the half-life at 5 μM in data set [5] (setting [8]) stood at 11.8 h. In addition, the CLint scaled at 5 μM in data set [5] was 2.45 mL/min/kg. The IC50 in data set [6] is 5 nM.

In data set [1], `COc1ncc(-c2ccn3ncc(C#N)c3n2)cc1NS(=O)(=O)c1ccc(F)cc1F` [Ex. 2, N-(5-(3-cyanopyrazolo[1,5-a]pyrimidin-5-yl)-2-methoxypyridin-3-yl)-2,4-difluorobenzenesulfonamide] showed an F of 69.48%, a Cl/F of 4.33 mL/min/kg, an AUC(0-t) of 7720 ng·h/mL and a half-life of 3.7 h. For the same compound, the Vd in data set [1] worked out at 0.8 L/kg. Also, the T1/2 result in data set [2] (setting [7]) is reported as “∞”. For the same compound, the IC50 in data set [3] came to 5 nM. Further, the IC50 in data set [4] is 45 nM. The T1/2 result in data set [5] (setting [8]) is reported as “∞”. Further, the IC50 in data set [6] worked out at 5 nM.

Consider `COc1ncc(-c2ccn3ncc(C#N)c3c2)cc1NS(=O)(=O)c1ccc(F)cc1F` [Ex. 3, N-(5-(3-cyanopyrazolo[1,5-a]pyridin-5-yl)-2-methoxypyridin-3-yl)-2,4-difluorobenzenesulfonamide], for which, in data set [1], the F was 94.75%, the Cl/F amounted to 4.83 mL/min/kg, the AUC(0-t) was found to be 7070 ng·h/mL and the half-life is 2.77 h. In addition, the Vd in data set [1] was 0.85 L/kg. In addition, in data set [2] (setting [7]), the half-life at 5 μM worked out at 9.59 h. Besides, the CLint scaled at 5 μM in data set [2] was 4.32 mL/min/kg. In data set [3], the IC50 was 6 nM. Besides, the 50% inhibitory concentration (IC50) in data set [4] came to 41 nM. Also, in data set [5] (setting [8]), the half-life at 5 μM is 40.1 h. Besides, in data set [5], the CLint scaled at 5 μM was 0.72 mL/min/kg. Further, the IC50 in data set [6] is 2 nM.

Regarding `COc1ncc(-c2ccn3ncc(C#CCO)c3c2)cc1NS(=O)(=O)c1ccc(F)cc1F` [Ex. 4, 2,4-difluoro-N-(5-(3-(3-hydroxyprop-1-yn-1-yl)pyrazolo[1,5-a]pyridin-5-yl)-2-methoxypyridin-3-yl)benzenesulfonamide], in data set [1], the F was 91.75%, the Cl/F worked out at 4.67 mL/min/kg, the AUC(0-t) was determined as 7350 ng·h/mL and the half-life is 1.93 h. The Vd in data set [1] is 0.48 L/kg. In addition, the half-life at 5 μM in data set [2] (setting [7]) is 2.56 h. Also, in data set [2], the CLint scaled at 5 μM is 16.2 mL/min/kg. In addition, the IC50 in data set [3] stood at 15 nM. Besides, in data set [4], the IC50 came to 22 nM. This compound yielded a half-life at 5 μM in data set [5] (setting [8]) of 4.99 h. Also, the CLint scaled at 5 μM in data set [5] is 5.81 mL/min/kg. For the same compound, the IC50 in data set [6] is 1 nM.
